Test system: lashes and adjacent hairs
Test: Clinical observation of lashes and adjacent hairs in glaucoma patients treated with bimatoprost in only one eye
Assay type: in vivo
From the text: In the course of treating patients having glaucoma, treatment may only be appropriate in one eye. […] The lash appearance on the lids of the treated eyes would have appeared quite attractive if it represented a bilateral phenomenon. As a result of its asymmetric nature, the long lashes on one side could be construed as disturbing from a cosmetic standpoint. A systemic examination was preformed as a result of the asymmetric phenomenon. It soon became apparent that this altered appearance was not an isolated finding.
The changes in the lashes were apparent on gross inspection in several patients once attention was focused on the issue. In those with light colored hair and lashes, the differences were only seen easily with the aid of the high magnification and lighting capabilities of the slit lamp biomicroscope. In the course of glaucoma follow-up examination, attention is generally immediately focused on the eye itself. As a result of the high power magnification needed only one eye is seen at a time and the eye is seen at a high enough power that the lashes are not in focus. At these higher powers, any lash asymmetry between the two eyes is not likely to be noticed except by careful systematic comparison of the lashes and adjacent hairs of the eyelids of the two eyes.
Observed parameters leading to the conclusion that more robust hair growth occurred in the treatment area following administration of the prostaglandin analogue were multiple. They included increased length of lashed, increased number of lashes along the normal lash line, increased thickness and luster of lashes, increased auxiliary lash-like terminal hair in transitional areas adjacent to areas of normal lash growth, increased auxiliary lash-like terminal hairs at the medial and lateral canthal area, increased pigmentation of the lashes, increased numbers, increased length, as well as increased luster, and thickness of fine hair on the skin of the adjacent lid, and finally, increased perpendicular angulation of lashes and lash-like terminal hairs.

CCNC(=O)CCC/C=C\C[C@@H]1[C@@H](/C=C/[C@@H](O)CCc2ccccc2)[C@H](O)C[C@@H]1O [bimatoprost]
lash appearance in treated eye versus non-treated eye (a glaucoma patient treated with bimatoprost in one eye, gross examination): longer, thicker, and fuller in the treated eye than in the non-treated eye
differences in the lashes and adjacent hairs of treated side (all patients taking the drug on a unilateral basis for longer than 6 months): Definite differences could be identified to varying degrees
hair growth, conclusion from multiple parameters of hair appearance in treated versus control areas (many subjects, lash length, number, thickness, luster, pigmentation, auxiliary terminal hairs): hair growth is stimulated
